In patent publication US20060069132A1, “Azolecarboxamide herbicides” (priority 2004, published 2006):

Tests used:
giant foxtail = experiment: Test B pre-/postemergence herbicide test; type: in vivo, Setaria faberi
Method in brief: (§1)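 Flooded paddy rice and barnyardgrass were treated at the 2-leaf stage; upland plantings received compound either on sown seed or on 1- to 4-leaf seedlings. All were kept 13–15 days in a greenhouse and scored visually, 0–100, relative to untreated plants.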

lambsquarters = experiment: Test B pre-/postemergence herbicide test; type: in vivo, Chenopodium album; details: for Lambsquarters plant response rating: postemergence, visual rating
Method in brief: as §1

[1] = test system: small flower umbrella sedge; experiment: Test B flooded paddy test; type: in vivo, Cyperus difformis; details: 1000 g ai/ha, visual rating, scale 0 to 100 (0 no effect, 100 complete control), 13 to 15 days
Method in brief: (§2)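 Each value is a visual 0–100 response rating taken against controls 13 to 15 days after treatment in the greenhouse. Plants received formulated chemical postemergence at the 1- to 4-leaf stage or, in flooded paddy, at the 2-leaf stage.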

velvetleaf = experiment: Test B pre-/postemergence herbicide test; type: in vivo, Abutilon theophrasti; details: for Velvetleaf plant response rating: postemergence, visual rating
Method in brief: as §1

ducksalad [2] = experiment: Test B flooded paddy test; type: in vivo, Heteranthera limosa; details: 1000 g ai/ha, visual rating, scale 0 to 100 (0 no effect, 100 complete control), 13 to 15 days
Method in brief: as §2

morningglory = experiment: Test B pre-/postemergence herbicide test; type: in vivo, Ipomoea coccinea; details: for Morningglory plant response rating: postemergence, visual rating
Method in brief: (§3)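 Evaluation is visual, comparing treated with control plants on a scale where 0 means no effect and 100 means full control. Treatments were preemergence, or postemergence on seedlings 2–18 cm tall, and held 13–15 days in the greenhouse.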

barnyardgrass [3] = experiment: Test B pre-/postemergence herbicide test; type: in vivo, Echinochloa crus-galli
Method in brief: as §3

pigweed = experiment: Test B pre-/postemergence herbicide test; type: in vivo, Amaranthus retroflexus; details: for Pigweed plant response rating: postemergence, visual rating
Method in brief: as §1

rice [4] = experiment: Test B pre-/postemergence herbicide test; type: in vivo, Oryza sativa; details: preemergence
Method in brief: as §3

rice [5] = experiment: Test C flooded paddy test; type: in vivo, Oryza sativa; details: for Plant response rating, Rice: 500 g ai/ha, visual rating after 12 to 14 days
Method in brief: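 Plants were grown to the 1- to 4-leaf stage (2–18 cm) and then treated postemergence, or grown to the 2-leaf stage for the flooded paddy test. They were held in a greenhouse for 12 to 14 days and then scored by eye against controls, where 0 is no effect and 100 is complete control.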

barnyardgrass [6] = experiment: Test B flooded paddy test; type: in vivo, Echinochloa crus-galli; details: 1000 g ai/ha, visual rating, scale 0 to 100 (0 no effect, 100 complete control), 13 to 15 days
Method in brief: as §2

rice [7] = experiment: Test B flooded paddy test; type: in vivo, Oryza sativa; details: 1000 g ai/ha, visual rating, scale 0 to 100 (0 no effect, 100 complete control), 13 to 15 days
Method in brief: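 After treating 2-leaf paddy plants or 2–18 cm postemergence plants (1 to 4 leaves) with formulated chemical, researchers kept them in a greenhouse for 13–15 days. Effects were judged visually versus controls: 0 indicates none, 100 total control.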

wheat = experiment: Test B postemergence herbicide test; type: in vivo, Triticum aestivum; set-up: key to Wheat plant response rating: 0 = no effect, 100 = complete control; details: scale 0 (no effect) to 100 (complete control)
Method in brief: (§4)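 Read-out: visual comparison with controls, scored 0 to 100, where 100 means complete control and 0 no effect. Formulated chemicals were applied postemergence to plants 2–18 cm tall (1- to 4-leaf), or to flooded-paddy plants at the 2-leaf stage, then held 13 to 15 days under glass.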

Surinam grass = experiment: Test B pre-/postemergence herbicide test; type: in vivo, Urochloa decumbens; details: for Surinam Grass plant response rating: postemergence, visual rating
Method in brief: as §1

corn = experiment: Test B pre-/postemergence herbicide test; type: in vivo, Zea mays
Method in brief: as §1

large crabgrass = experiment: Test B pre-/postemergence herbicide test; type: in vivo, Digitaria sanguinalis
Method in brief: as §1

[8] = test system: smallflower umbrella sedge; experiment: Test C flooded paddy test; type: in vivo, Cyperus difformis; details: for Plant response rating, Sedge, Umbrella: 500 g ai/ha, visual rating after 12 to 14 days
ducksalad [9] = experiment: Test C flooded paddy test; type: in vivo, Heteranthera limosa; details: for Plant response rating, Ducksalad: 500 g ai/ha, visual rating after 12 to 14 days
cocklebur = experiment: Test B pre-/postemergence herbicide test; type: in vivo, Xanthium strumarium
Method in brief: as §3

blackgrass = experiment: Test B postemergence herbicide test; type: in vivo, Alopecurus myosuroides; details: scale 0 (no effect) to 100 (complete control)
Method in brief: as §2

barnyardgrass [10] = experiment: Test C flooded paddy test; type: in vivo, Echinochloa crus-galli; details: for Plant response rating, Barnyardgrass: 500 g ai/ha, visual rating after 12 to 14 days
Method in brief: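 Postemergence sprays were applied to plants 2 to 18 cm tall (1- to 4-leaf stage); in the flooded paddy test, barnyardgrass was grown to the 2-leaf stage. After 12 to 14 days in a greenhouse, injury was visually rated against untreated controls on a 0–100 scale (100 = complete control).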

wild oat = experiment: Test B postemergence herbicide test; type: in vivo, Avena fatua; details: scale 0 (no effect) to 100 (complete control)
Method in brief: as §4

[11] = Postemergence, 500 g ai/ha, visual rating after 13 to 15 days, scale 0 (no effect) to 100 (complete control)
[12] = Preemergence, 500 g ai/ha, scale 0 to 100
[13] = postemergence, 125 g ai/ha, visual rating, scale 0 (no effect) to 100 (complete control)
[14] = preemergence, 125 g ai/ha, 0 to 100 scale, 0 is no effect, 100 is complete control
[15] = 125 g ai/ha, scale 0 (no effect) to 100 (complete control)
[16] = 62 g ai/ha, scale 0 to 100 (0 no effect, 100 complete control)
[17] = 125 g ai/ha, scale of 0 to 100, 0 is no effect, 100 is complete control
[18] = 250 g ai/ha, scale of 0 to 100, 0 is no effect, 100 is complete control
[19] = scale 0 to 100 (0 no effect, 100 complete control)
[20] = Postemergence, 500 g ai/ha, visual rating after 13 to 15 days
[21] = postemergence, 125 g ai/ha, visual rating
[22] = 500 g ai/ha, visual rating 0-100, 0 no effect, 100 complete control, preemergence
[23] = postemergence, 500 g ai/ha, visual rating, scale 0 (no effect) to 100 (complete control)
[24] = 500 g ai/ha, scale 0 (no effect) to 100 (complete control)
[25] = 125 g ai/ha, scale 0 to 100 (0 no effect, 100 complete control)

CCn1nc(C(C)(C)C)cc1C(=O)Nc1cc(C(=O)OC)c(OC)cc1F [Compound 75]
40: Plant response rating, Lambsquarters (lambsquarters; [11]) | Lambsquarters plant response rating (lambsquarters; [15]) | Plant response rating, Rice (rice [4]; 125 g ai/ha, 0 to 100 scale, 0 is no effect, 100 is complete control) | Plant response rating, Oat, Wild (wild oat; [20])
75: Sedge, Umbrella plant response rating [8, 17]
30: Plant response rating, Foxtail, Giant (giant foxtail; [14]) | Plant response rating, Surinam Grass (Surinam grass; [14]) | Corn plant response rating (corn; [12]) | Ducksalad plant response rating (ducksalad [9]; [17]) | Plant response rating, Cocklebur (cocklebur; [11]) | Plant response rating, Blackgrass (blackgrass; [20])
10: Barnyardgrass plant response rating (barnyardgrass [3]; [13]) | Wheat plant response rating (wheat; [21]) | Surinam Grass plant response rating (Surinam grass; [15]) | Corn plant response rating (corn; [13]) | Plant response rating, Crabgrass, Large (large crabgrass; [11]) | Crabgrass, Large plant response rating (large crabgrass; [13]) | Plant response rating, Crabgrass, Large (large crabgrass; [14]) | Cocklebur plant response rating (cocklebur; [12]) | Cocklebur plant response rating (cocklebur; [13]) | Blackgrass plant response rating (blackgrass; [21]) | Oat, Wild plant response rating (wild oat; [21])
80: Barnyardgrass plant response rating (barnyardgrass [6]) | Sedge, Umbrella plant response rating [8, 18]
70: Sedge, Umbrella plant response rating [1] | Plant response rating, Pigweed (pigweed; [11]) | Crabgrass, Large plant response rating (large crabgrass; [12]) | Sedge, Umbrella plant response rating [8, 16] | Plant response rating, Ducksalad (ducksalad [9]; [19]) | Plant response rating, Barnyardgrass (barnyardgrass [10]; [19])
25: Rice plant response rating (rice [5]; [17]) | Barnyardgrass plant response rating (barnyardgrass [10]; [17])
0: Plant response rating, Morningglory (morningglory; [14]) | Rice plant response rating (rice [5]; [16]) | Plant response rating, Corn (corn; [14]) | Ducksalad plant response rating (ducksalad [9]; [16]) | Plant response rating, Cocklebur (cocklebur; [14]) | Barnyardgrass plant response rating (barnyardgrass [10]; [16])
50: Plant response rating, Morningglory (morningglory; [11]) | Plant response rating, Barnyardgrass (barnyardgrass [3]; [14]) | Pigweed plant response rating (pigweed; [15]) | Plant response rating, Pigweed (pigweed; [14])
20: Plant response rating, Foxtail, Giant (giant foxtail; [11]) | Foxtail, Giant plant response rating (giant foxtail; [13]) | Plant response rating, Lambsquarters (lambsquarters; [14]) | Plant response rating, Velvetleaf (velvetleaf; [11]) | Velvetleaf plant response rating (velvetleaf; [15]) | Plant response rating, Velvetleaf (velvetleaf; [14]) | Morningglory plant response rating (morningglory; [15]) | Plant response rating, Barnyardgrass (barnyardgrass [3]; [11]) | Plant response rating, Wheat (wheat; [20]) | Plant response rating, Surinam Grass (Surinam grass; [11]) | Plant response rating, Corn (corn; [11])
90: Foxtail, Giant plant response rating (giant foxtail; [12]) | Ducksalad plant response rating (ducksalad [2]) | Barnyardgrass plant response rating (barnyardgrass [3]; [12]) | Rice plant response rating (rice [7])
85: Plant response rating, Sedge, Umbrella [8, 19]
65: Plant response rating, Rice (rice [5]; [19]) | Ducksalad plant response rating (ducksalad [9]; [18]) | Barnyardgrass plant response rating (barnyardgrass [10]; [18])
55: Rice plant response rating (rice [5]; [18])

C=CCN(C)C(=O)c1ccnc(NC(=O)c2cc(C(C)(C)C)nn2CC)c1 [Compound 159]
70: Sedge, Umbrella plant response rating [1] | Velvetleaf plant response rating (velvetleaf; [24]) | Plant response rating, Barnyardgrass (barnyardgrass [3]; [14]) | Plant response rating, Rice (rice [4]; 500 g ai/ha, visual rating 0-100, 0 no effect, 100 complete control) | Plant response rating, Surinam Grass (Surinam grass; [22]) | Plant response rating, Crabgrass, Large (large crabgrass; [22]) | Barnyardgrass plant response rating (barnyardgrass [10]; [18])
80: Plant response rating, Velvetleaf (velvetleaf; [14]) | Pigweed plant response rating (pigweed; [15]) | Pigweed plant response rating (pigweed; [24]) | Rice plant response rating (rice [5]; [18]) | Barnyardgrass plant response rating (barnyardgrass [6]) | Plant response rating, Sedge, Umbrella [8, 19] | Ducksalad plant response rating (ducksalad [9]; [16]) | Cocklebur plant response rating (cocklebur; [13]) | Cocklebur plant response rating (cocklebur; [23]) | Plant response rating, Barnyardgrass (barnyardgrass [10]; [19])
40: Foxtail, Giant plant response rating (giant foxtail; [13]) | Plant response rating, Morningglory (morningglory; [22]) | Plant response rating, Crabgrass, Large (large crabgrass; [14]) | Sedge, Umbrella plant response rating [8, 25]
90: Lambsquarters plant response rating (lambsquarters; [15]) | Lambsquarters plant response rating (lambsquarters; [24]) | Plant response rating, Velvetleaf (velvetleaf; [22]) | Ducksalad plant response rating (ducksalad [2]) | Plant response rating, Barnyardgrass (barnyardgrass [3]; [22]) | Plant response rating, Rice (rice [5]; [19]) | Ducksalad plant response rating (ducksalad [9]; [25]) | Ducksalad plant response rating (ducksalad [9]; [18]) | Plant response rating, Cocklebur (cocklebur; [14])
10: Morningglory plant response rating (morningglory; [15]) | Morningglory plant response rating (morningglory; [24]) | Sedge, Umbrella plant response rating [8, 16]
50: Foxtail, Giant plant response rating (giant foxtail; [23]) | Plant response rating, Foxtail, Giant (giant foxtail; [14]) | Barnyardgrass plant response rating (barnyardgrass [10]; [17])
30: Plant response rating, Morningglory (morningglory; [14]) | Barnyardgrass plant response rating (barnyardgrass [10]; [16])
100: Plant response rating, Lambsquarters (lambsquarters; [22]) | Plant response rating, Lambsquarters (lambsquarters; [14]) | Plant response rating, Pigweed (pigweed; [22]) | Plant response rating, Pigweed (pigweed; [14]) | Plant response rating, Ducksalad (ducksalad [9]; [19]) | Plant response rating, Cocklebur (cocklebur; [22])
0: Barnyardgrass plant response rating (barnyardgrass [3]; [13]) | Barnyardgrass plant response rating (barnyardgrass [3]; [23]) | Surinam Grass plant response rating (Surinam grass; [15]) | Plant response rating, Corn (corn; [22]) | Corn plant response rating (corn; [13]) | Corn plant response rating (corn; [23]) | Plant response rating, Corn (corn; [14]) | Crabgrass, Large plant response rating (large crabgrass; [13]) | Crabgrass, Large plant response rating (large crabgrass; [23])
60: Plant response rating, Foxtail, Giant (giant foxtail; [22]) | Rice plant response rating (rice [5]; [16]) | Rice plant response rating (rice [5]; [25]) | Rice plant response rating (rice [7]) | Plant response rating, Surinam Grass (Surinam grass; [14]) | Sedge, Umbrella plant response rating [8, 18]
20: Velvetleaf plant response rating (velvetleaf; [15]) | Surinam Grass plant response rating (Surinam grass; [24])
